Measurements as given in paper PMC11123956, “Nobiletin Stimulates Adrenal Hormones and Modulates the Circadian Clock in Mice” (Nutrients, 2024).

Assays:
[1] = target: T1, PDE3A (Homo sapiens, UniProt Q14432); assay: PDE enzyme  assay, PDE3A; format: biochemical
T1 construct: purchased Eurofins Panlabs Discovery Services Taiwan, Ltd. (contract assay); host or cells: insect Sf9 cells
Procedure: (§1) Enzyme assays for various subtypes of PDE (Table 1 and Figure 4) were conducted by Eurofins Panlabs Discovery Services Taiwan, Ltd. (New Taipei City, Taiwan). In the assays, five or six concentrations of nobiletin over five or six orders of magnitude were examined in experiments conducted in duplicate to determine the IC50 (concentration of nobiletin exerting half-maximal inhibition of control-specific activity). IC50 values were determined by nonlinear least squares regression analysis using MathIQTM (ID Business Solutions Ltd., Woking, UK). FAM-cAMP, FAM-cGMP (0.1 μM), and 100 μM [^3H]cGMP + cGMP were used for the substrate in the human recombinant insect Sf9 cells or Bovine retinal rod outer segments depending on the PDE subtype. The spectrofluorometric quantitation of fluorescein-AMP-IMAP, fluorescein-GMP-IMAP, or [^3H] guanosine was used depending on the PDE subtype. A known […] of each PDE was used as the positive control.

[2] = target: T2, PDE4B1 (Homo sapiens, UniProt Q07343); assay: PDE enzyme (kinase) assay, PDE4B1; format: biochemical
T2 construct: purchased Eurofins Panlabs Discovery Services Taiwan, Ltd. (contract assay); host or cells: insect Sf9 cells
Procedure: as §1
Figure 4 PDE kinase assays and the acute clock gene expression changes by PDE4 inhibitor or ROR α/γ agonist. (A) Inhibitory effect of nobiletin on PDE4A1, 4B1, and 10A2. Various concentrations of nobiletin (1–100 μM) were used for IC50 determination (Table 1). Values represent the mean of two experiments. Positive controls were rolipram for PDE4A1 and 4B1 and papaverine for PDE10A2. […]

[3] = target: T3, PDE11A4 (Homo sapiens, UniProt Q9HCR9); assay: PDE enzyme  assay, PDE11A4; format: biochemical
T3 construct: purchased Eurofins Panlabs Discovery Services Taiwan, Ltd. (contract assay); host or cells: insect Sf9 cells
Procedure: as §1

[4] = system: serum corticosterone; assay: Serum corticosterone ELISA after i.p. injection; format: in vivo, mice; conditions: 100 mg/kg i.p. at ZT3, 1 h after administration
Procedure: (§2) Male C57BL/6J mice (7 weeks old) were purchased from Charles River Japan (Kanagawa, Japan) and used for the serum hormone assay and RT-PCR. Male ICR mice were purchased from Tokyo Laboratory Animals Science Co., Ltd. (Tokyo, Japan), and female PERIOD2::LUCIFERASE (PER2::LUC) knock-in mice (ICR background) bred at Waseda University were used for blood glucose measurements and in vivo imaging assays, respectively. The mice were all housed under conditions of controlled temperature (23 °C ± 3 °C), humidity (50% ± 20%), and lighting (lights on from 07:00 to 19:00 at Taisho Pharmaceutical Co., Ltd. or from 08:00 to 20:00 at Waseda University). In the 24 h cycle, Zeitgeber time 0 (ZT0) was designated as the time when the lights were turned on, and ZT12 was designated as the time when the lights were turned off. […]
(§3) Serum corticosterone, adrenaline, and adreno-corticotropic hormone (ACTH) levels, and corticotropin releasing factor (CRF) in the hypothalamus, were measured using enzyme-linked immunosorbent assay (ELISA). […] Blood glucose levels were measured using a Glucose PILOT kit (Aventir Biotech, LLC, Carlsbad, CA, USA). The range of blood glucose that could be precisely measured with the kit was 20–600 mg/dL. […]

[5] = system: serum adrenaline; assay: Serum adrenaline ELISA after i.p. injection; format: in vivo, mice; conditions: intraperitoneal injection, 100 mg/kg
Procedure: as §2, §3

T2 sequence (Q07343 whole entry): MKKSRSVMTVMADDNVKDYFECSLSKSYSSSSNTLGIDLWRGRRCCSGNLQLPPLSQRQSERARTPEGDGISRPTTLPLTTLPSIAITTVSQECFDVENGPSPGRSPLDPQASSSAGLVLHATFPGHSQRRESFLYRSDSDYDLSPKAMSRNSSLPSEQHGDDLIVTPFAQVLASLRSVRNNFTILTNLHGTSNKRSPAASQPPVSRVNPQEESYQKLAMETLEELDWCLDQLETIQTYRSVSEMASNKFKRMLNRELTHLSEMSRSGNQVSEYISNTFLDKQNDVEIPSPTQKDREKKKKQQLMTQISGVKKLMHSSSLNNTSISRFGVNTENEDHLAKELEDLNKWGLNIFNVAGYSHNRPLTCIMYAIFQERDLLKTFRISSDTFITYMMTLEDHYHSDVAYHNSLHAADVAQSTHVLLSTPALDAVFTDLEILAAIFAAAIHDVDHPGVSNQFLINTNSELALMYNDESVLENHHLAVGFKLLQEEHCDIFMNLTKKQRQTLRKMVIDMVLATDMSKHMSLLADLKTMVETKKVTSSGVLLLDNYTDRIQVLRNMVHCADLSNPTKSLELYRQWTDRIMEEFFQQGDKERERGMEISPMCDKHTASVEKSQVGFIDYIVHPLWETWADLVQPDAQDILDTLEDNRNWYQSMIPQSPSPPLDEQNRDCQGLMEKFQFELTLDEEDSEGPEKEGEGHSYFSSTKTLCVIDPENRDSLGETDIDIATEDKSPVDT
T1 sequence (Q14432 whole entry): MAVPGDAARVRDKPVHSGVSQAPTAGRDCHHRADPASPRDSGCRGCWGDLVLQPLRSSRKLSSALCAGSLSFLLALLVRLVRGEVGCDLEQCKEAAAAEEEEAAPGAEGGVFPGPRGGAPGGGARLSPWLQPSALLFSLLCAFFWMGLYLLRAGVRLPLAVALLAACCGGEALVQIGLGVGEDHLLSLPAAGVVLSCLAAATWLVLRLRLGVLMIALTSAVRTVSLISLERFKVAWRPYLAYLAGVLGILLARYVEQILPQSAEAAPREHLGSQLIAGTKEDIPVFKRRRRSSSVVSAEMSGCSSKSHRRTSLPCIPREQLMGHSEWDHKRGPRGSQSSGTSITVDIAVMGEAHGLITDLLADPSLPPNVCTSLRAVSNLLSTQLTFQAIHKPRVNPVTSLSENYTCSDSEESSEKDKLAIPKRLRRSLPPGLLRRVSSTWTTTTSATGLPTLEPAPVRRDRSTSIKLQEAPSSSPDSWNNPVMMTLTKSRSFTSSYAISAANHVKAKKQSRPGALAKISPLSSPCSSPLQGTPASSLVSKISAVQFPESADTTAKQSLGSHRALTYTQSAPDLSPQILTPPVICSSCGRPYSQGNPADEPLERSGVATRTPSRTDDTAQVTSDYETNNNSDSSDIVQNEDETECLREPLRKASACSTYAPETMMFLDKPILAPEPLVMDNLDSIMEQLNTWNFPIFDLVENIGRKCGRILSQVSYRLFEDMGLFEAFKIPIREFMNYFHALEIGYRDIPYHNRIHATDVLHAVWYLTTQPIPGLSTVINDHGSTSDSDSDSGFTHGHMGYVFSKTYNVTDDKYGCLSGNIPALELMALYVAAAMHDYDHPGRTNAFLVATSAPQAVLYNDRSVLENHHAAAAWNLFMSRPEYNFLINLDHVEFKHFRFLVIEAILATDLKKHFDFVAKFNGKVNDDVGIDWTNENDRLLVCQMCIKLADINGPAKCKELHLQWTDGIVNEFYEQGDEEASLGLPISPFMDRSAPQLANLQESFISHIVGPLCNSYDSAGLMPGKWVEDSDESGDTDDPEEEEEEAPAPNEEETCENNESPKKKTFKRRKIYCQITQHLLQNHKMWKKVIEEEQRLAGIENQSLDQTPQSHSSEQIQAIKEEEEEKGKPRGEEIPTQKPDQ
T3 sequence (Q9HCR9 whole entry): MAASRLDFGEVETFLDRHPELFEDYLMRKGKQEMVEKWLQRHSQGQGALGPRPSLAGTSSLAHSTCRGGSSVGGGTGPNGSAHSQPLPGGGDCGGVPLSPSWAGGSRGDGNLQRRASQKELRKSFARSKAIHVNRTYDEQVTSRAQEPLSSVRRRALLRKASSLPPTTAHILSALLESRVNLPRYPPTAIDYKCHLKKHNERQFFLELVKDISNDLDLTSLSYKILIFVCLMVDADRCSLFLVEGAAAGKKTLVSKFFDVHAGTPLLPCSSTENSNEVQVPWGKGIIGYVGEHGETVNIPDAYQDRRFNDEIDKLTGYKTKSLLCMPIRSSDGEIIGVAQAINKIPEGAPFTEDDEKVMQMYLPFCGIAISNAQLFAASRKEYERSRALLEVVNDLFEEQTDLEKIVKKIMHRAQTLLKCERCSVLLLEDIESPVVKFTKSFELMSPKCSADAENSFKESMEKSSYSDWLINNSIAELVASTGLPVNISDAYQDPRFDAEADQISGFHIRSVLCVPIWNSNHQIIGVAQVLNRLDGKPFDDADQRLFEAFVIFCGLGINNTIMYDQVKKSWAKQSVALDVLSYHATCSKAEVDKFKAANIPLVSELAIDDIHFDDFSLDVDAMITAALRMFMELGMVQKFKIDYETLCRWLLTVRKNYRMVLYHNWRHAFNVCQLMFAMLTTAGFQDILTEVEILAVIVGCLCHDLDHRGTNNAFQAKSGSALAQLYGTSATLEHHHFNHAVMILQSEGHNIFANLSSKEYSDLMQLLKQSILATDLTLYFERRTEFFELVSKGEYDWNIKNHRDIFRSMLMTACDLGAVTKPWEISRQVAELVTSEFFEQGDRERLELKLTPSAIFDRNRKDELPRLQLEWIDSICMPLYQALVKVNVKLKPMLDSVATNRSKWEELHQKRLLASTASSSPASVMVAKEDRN

COc1ccc(-c2cc(=O)c3c(OC)c(OC)c(OC)c(OC)c3o2)cc1OC [nobiletin]
IC50 [1]: 16 µM
IC50 ([2]; IC50, PDE4B1, bound stated in the discussion): ≤ 6.03 µM
IC50 ([2]; IC50 Dose, PDE4B1, duplicate): 6.03 µM
IC50 [3]: 31 µM
serum corticosterone levels [4]: increase
adrenaline secretion [5]: significantly and potently stimulated
